The text below walks through data of patent US20140057895A1, “INDAZOLE- AND PYRROLOPYRIDINE-DERIVATIVE AND PHARMACEUTICAL USE THEREOF” (priority 2011, published 2014).

A word on the EC50: it is the concentration needed to bring the measured effect to its halfway point. Higher therefore signals lower potency in that assay. By IC50 is commonly meant the point on the concentration scale where inhibition reaches its midpoint. Read a low IC50 as greater potency.

Structures are written as SMILES.

For one assay, the target named is T1, human 5-HT4b receptor (Homo sapiens, UniProt Q13639).
T1 construct: expressed in transfected cells; host or cells: CHO cells (G418 selection)
T1 sequence (Q13639 whole entry): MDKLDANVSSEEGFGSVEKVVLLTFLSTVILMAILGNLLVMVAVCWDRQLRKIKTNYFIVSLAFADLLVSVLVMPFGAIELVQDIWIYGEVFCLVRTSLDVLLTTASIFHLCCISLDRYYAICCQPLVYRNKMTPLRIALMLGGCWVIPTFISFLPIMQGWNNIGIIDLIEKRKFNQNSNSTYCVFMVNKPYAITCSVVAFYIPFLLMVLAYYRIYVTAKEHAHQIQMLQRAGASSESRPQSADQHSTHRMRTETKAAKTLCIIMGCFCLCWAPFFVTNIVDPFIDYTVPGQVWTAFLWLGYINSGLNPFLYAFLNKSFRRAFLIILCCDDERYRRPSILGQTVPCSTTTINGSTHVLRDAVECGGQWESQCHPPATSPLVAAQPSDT
Put plainly: Test Example 2: Serotonin 4 (5-HT4) receptor agonist activity assay, cAMP HTRF in CHO cells (Table 97). It is filed as cell-based. The settings on record: cAMP in CHO cells expressing human 5-HT4b receptor, mean value; for Emax: 0.25 h, intrinsic activity, maximal activity of 5-HT defined as 100%, read-out: IA (%); for EC50: concentration showing 50% of IA. (Time-resolved FRET reads energy transfer from a long-lived donor to a nearby acceptor.)

Assay [1] concerns the target T2, Human 5-HT4 receptor (5-HT4b) (Homo sapiens, UniProt Q13639).
T2 construct: expressed in transfected cells; membrane preparation
Nature of the assay: Test Example 3: Human 5-HT4 receptor binding assay, membranes of CHO-K1 cells stably expressing 5-HT4b receptors (Table 99). The settings on record: mean value of each group. The essentials:
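Radioligand displacement: [3H]-GR113808 (0.1 nM) bound to CHO-K1 5-HT4b membranes for 30 min at 37 °C in Hepes buffer (50 mM, pH 7.4). Specific binding is total minus that with 30 μM serotonin; filter-bound radioactivity counted, IC50 derived from percent inhibition.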

In assay [2] the test system is scopolamine-induced cognitive impairment. Nature of the assay: Example 5: Y-maze test, scopolamine-induced cognitive impairment, single-agent administration (Table 101). It is filed as in vivo, ddY mouse. The settings on record: p.o., scopolamine-treated, # = P<0.05 vs scopolamine group. The source says:
Thus, scopolamine-induced cognitive impairment model, one of the AD-like model, has been used to predict pharmacodynamic signals of putative procognitive compounds, utilizing the acetylcholinesterase inhibitor donepezil for illustration (See, Citations 1 and 2). The present inventors investigated the effect of each compound on reversal of scopolamine-induced deficits in performance of Y-maze test in mice, and they also investigated adjunctive effect of compounds with donepezil on reversal of deficits induced by scopolamine and MK801 in mice.
Used animal: ddY mouse (SLC)
In the experiments, the mice were grouped in the same way using Stat Preclinica (Version 1.03295; Takumi Information Technology Inc.). The selected mice were divided into 5 to 7 groups of 7 to 12 mice using the “completely randomization design by the single variable” program (Analytical program version 1.0.7), with body weight on the testing day. After grouping, p values for Bartlett's test and ANOVA across all groups were greater than 0.2, indicating no significant difference in this parameter among the groups.
The required amount of each compound was weighed and put into a glass homogenizer. […]
The required amount of scopolamine and MK801 were weighed, and saline was added to it to give 0.3 mg/mL and 0.015 mg/mL solution, respectively.
90 Min before the test, the mice were orally administered each compound, donepezil, and vehicle (0.5% methyl cellulose, 10 mL/kg). After 60 min, memory impairment was induced by administering scopolamine (0.6 mg/kg, s.c.) with (co-administration) or without (mono-administration) MK801 (0.03 mg/kg, s.c.). The control group received saline (2 mL/kg, s.c.) rather than scopolamine and MK801.
The Y-maze used herein is a three-arm maze with equal angles between all arms. The mazefloor and walls were constructed from black acrylic resin. The mice were initially placed within one arm, and the sequence and number of arm entries were recorded manually for each mouse over an 8-min period.
Data were processed and analyzed with Microsoft® Office Excel 2003. The alternation behavior was defined as entries into all three arms on consecutive occasions. The percent alternation behavior in each animal was calculated using the following formula, and rounded to one decimal place.
Alternation behavior(%)=[actual alternation/(total arm entries−2)]×100
Restoration ratio of alternation behavior (%) in each animal was calculated using the following formula, and rounded to one decimal place.
Restoration ratio of alternation behavior in each animal (%)=y Alternation behavior in each animal (%)=x Mean of alternation behavior in vehicle-treated group (group No. 1) (%)=A Mean of alternation behavior in scopolamine-treated group (group No. 2) (%)=B
Data were expressed as the mean of the percent alternation behavior, the number of total arm entries and the restoration ratio of alternation behavior.
Values of Y-maze tests are expressed as mean of alternation behavior (n=7−12).
Alternation behaviors in the scopolamine-treated groups were compared to those in the control groups using Wilcoxon rank sum test (Stat preclinical; Version 1.03295; Takumi Information Technology Inc.) with a two-sided significance level of 0.05.
Restoration of alternation behavior was analyzed using Stat Preclinica. Alternation behaviors in the vehicle-treated group were compared to those in the test substance-treated groups using non-parametric Dunnett multiple comparison test (Analytical program version 1.0.2) with a two-sided significance level of 0.05.

T2 sequence (Q13639 whole entry): as above

Regarding `CC(=O)N1CCC(N2CCC(c3nc(-n4nc(C(C)C)c5cccc(F)c54)no3)CC2)CC1.Cl` [Example 232, 1-(4-{3-[7-fluoro-3-(propan-2-yl)-1H-indazol-1-yl]-1,2,4-oxadiazol-5-yl}-1,4′-bipiperidin-1′-yl)ethanone hydrochloride], the Emax at human 5-HT4b receptor is 95%. For the same compound, on human 5-HT4b receptor, the EC50 was 2.6 nM. Also, the IC50 in assay [1] was less than 20 nM. Besides, the “Alternation behavior (%)” value in assay [2] (compound 1 mg/kg) is on record as 66.3^# %; in assay [2] (compound 3 mg/kg), 63.0^# %; in assay [2] (compound 10 mg/kg), 53.6%.
For the compound `CC(C)c1nn(-c2noc(C3CCN(C4CCN(C(=O)CO)CC4)CC3)n2)c2c(F)cccc12` [Example 242, 1-(4-{3-[7-fluoro-3-(propan-2-yl)-1H-indazol-1-yl]-1,2,4-oxadiazol-5-yl}-1,4′-bipiperidin-1′-yl)-2-hydroxyethanone], at human 5-HT4b receptor, the Emax is 88%. The compound further displayed an EC50 at human 5-HT4b receptor of 2.2 nM. Besides, in assay [1], the IC50 is less than 20 nM. The figures for the “Alternation behavior (%)” value in assay [2] (compound 1 mg/kg), in assay [2] (compound 3 mg/kg) and in assay [2] (compound 10 mg/kg) were 63.4^# %, 62.9^# % and 57.5%, respectively.
